# Molecular target: T1, PLK1 (Homo sapiens, UniProt P53350)
# T1 construct: Full-length, active GST-PLK1 is purified from Sf9 insect cells; made in house; host or cells: Sf9 insect cells
# Assay: Biochemical Characterization Assay: HTRF kinase assay, GST-PLK1 phosphorylation of GST-p53
# Settings: GST-PLK1, GST-p53 substrate
# Method in brief: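 Full-length active GST-PLK1 (Sf9, 3 ug/mL) phosphorylated full-length GST-p53 (E. coli) in Kinase Assay Buffer for 35 min at 37 °C. Stopped with EDTA; phospho-p53 detected by HTRF with anti-phospho-p53, Eu-anti-rabbit and APC-anti-GST antibodies.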
# T1 sequence (P53350 whole entry): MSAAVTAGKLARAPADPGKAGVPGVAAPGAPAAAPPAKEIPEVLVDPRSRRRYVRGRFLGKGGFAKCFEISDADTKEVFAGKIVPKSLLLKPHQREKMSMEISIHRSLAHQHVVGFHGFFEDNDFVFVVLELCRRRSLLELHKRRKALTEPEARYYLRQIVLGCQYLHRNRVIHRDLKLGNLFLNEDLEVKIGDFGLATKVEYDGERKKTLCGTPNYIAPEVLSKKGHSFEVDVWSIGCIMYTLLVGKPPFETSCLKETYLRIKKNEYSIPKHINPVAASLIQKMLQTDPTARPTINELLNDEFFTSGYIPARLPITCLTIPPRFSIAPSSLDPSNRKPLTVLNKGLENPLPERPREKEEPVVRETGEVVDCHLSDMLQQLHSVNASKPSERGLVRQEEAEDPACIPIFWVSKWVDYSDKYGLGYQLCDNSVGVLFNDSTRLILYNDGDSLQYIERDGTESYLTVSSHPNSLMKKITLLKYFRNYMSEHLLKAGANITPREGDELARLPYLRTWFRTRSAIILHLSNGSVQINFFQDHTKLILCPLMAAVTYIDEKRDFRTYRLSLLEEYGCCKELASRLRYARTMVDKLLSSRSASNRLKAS
row,SMILES,IC50
1,"CNC(=O)c1ccc(Nc2ncc3c(n2)N(CCc2ccccc2)CC(F)(F)C(=O)N3C)c(OC)c1 [Example I-278, 4-(7,7-difluoro-5-methyl-6-oxo-9-phenethyl-6,7,8,9-tetrahydro-5H-pyrimido[4,5-b][1,4]diazepin-2-ylamino)-3-methoxy-N-methyl-benzamide]",51 to 500 nM
2,"COc1cc(C(=O)NC2CCOCC2)ccc1Nc1ncc2c(n1)N(CCc1ccccc1)CC(F)(F)C(=O)N2C [Example I-280, 4-(7,7-difluoro-5-methyl-6-oxo-9-phenethyl-6,7,8,9-tetrahydro-5H-pyrimido[4,5-b][1,4]diazepin-2-ylamino)-3-methoxy-N-(tetrahydro-pyran-4-yl)-benzamide]",51 to 500 nM
3,"COc1cc(C(N)=O)ccc1Nc1ncc2c(n1)N(CCCc1ccccc1)CC(F)(F)C(=O)N2C [Example I-283, 4-[7,7-difluoro-5-methyl-6-oxo-9-(3-phenyl-propyl)-6,7,8,9-tetrahydro-5H-pyrimido[4,5-b][1,4]diazepin-2-ylamino]-3-methoxy-benzamide]",51 to 500 nM
4,"CNC(=O)c1ccc(Nc2ncc3c(n2)N(CCCc2ccccc2)CC(F)(F)C(=O)N3C)c(OC)c1 [Example I-284, 4-[7,7-difluoro-5-methyl-6-oxo-9-(3-phenyl-propyl)-6,7,8,9-tetrahydro-5H-pyrimido[4,5-b][1,4]diazepin-2-ylamino]-3-methoxy-N-methyl-benzamide]",51 to 500 nM
5,"COc1cc(C(=O)NCCCN(C)C)ccc1Nc1ncc2c(n1)N(CCCc1ccccc1)CC(F)(F)C(=O)N2C [Example I-285, 4-[7,7-difluoro-5-methyl-6-oxo-9-(3-phenyl-propyl)-6,7,8,9-tetrahydro-5H-pyrimido[4,5-b][1,4]diazepin-2-ylamino]-N-(3-dimethylamino-propyl)-3-methoxy-benzamide]",1 to 50 nM
6,"COc1cc(C(=O)O)ccc1Nc1ncc2c(n1)N(C(C)C)CC(F)(F)C(=O)N2C [Example I-292, 4-(7,7-difluoro-9-isopropyl-5-methyl-6-oxo-6,7,8,9-tetrahydro-5H-pyrimido[4,5-b][1,4]diazepin-2-ylamino)-3-methoxy-benzoic acid]",51 to 500 nM
7,"COc1cc(C(=O)NC2CCN(C)CC2)ccc1Nc1ncc2c(n1)N(C(C)C)CC(F)(F)C(=O)N2C [Example I-293, 4-(7,7-difluoro-9-isopropyl-5-methyl-6-oxo-6,7,8,9-tetrahydro-5H-pyrimido[4,5-b][1,4]diazepin-2-ylamino)-3-methoxy-N-(1-methyl-piperidin-4-yl)-benzamide]",1 to 50 nM
8,"COc1cc(C(N)=O)ccc1Nc1ncc2c(n1)N(C(C)C)CC(F)(F)C(=O)N2C [Example I-294, 4-(7,7-difluoro-9-isopropyl-5-methyl-6-oxo-6,7,8,9-tetrahydro-5H-pyrimido[4,5-b][1,4]diazepin-2-ylamino)-3-methoxy-benzamide]",1 to 50 nM
9,"CNC(=O)c1ccc(Nc2ncc3c(n2)N(C(C)C)CC(F)(F)C(=O)N3C)c(OC)c1 [Example I-295, 4-(7,7-difluoro-9-isopropyl-5-methyl-6-oxo-6,7,8,9-tetrahydro-5H-pyrimido[4,5-b][1,4]diazepin-2-ylamino)-3-methoxy-N-methyl-benzamide]",1 to 50 nM
10,"COc1cc(C(=O)NC2CCOCC2)ccc1Nc1ncc2c(n1)N(C(C)C)CC(F)(F)C(=O)N2C [Example I-297, 4-(7,7-difluoro-9-isopropyl-5-methyl-6-oxo-6,7,8,9-tetrahydro-5H-pyrimido[4,5-b][1,4]diazepin-2-ylamino)-3-methoxy-N-(tetrahydro-pyran-4-yl)-benzamide]",1 to 50 nM
11,"COc1cc(C(=O)N[C@H]2CC[C@@H](N3CCN(CC4CC4)CC3)CC2)ccc1Nc1ncc2c(n1)N(C1CCCC1)CC(F)(F)C(=O)N2C [Example I-299, 4-(9-cyclopentyl-7,7-difluoro-5-methyl-6-oxo-6,7,8,9-tetrahydro-5H-pyrimido[4,5-b][1,4]diazepin-2-ylamino)-N-[cis-4-(4-cyclopropylmethyl-piperazin-1-yl)-cyclohexyl]-3-methoxy-benzamide]",1 to 50 nM

# Now from value to compound:
row,IC50,SMILES
1,51 to 500 nM,"COc1cc(C(N)=O)ccc1Nc1ncc2c(n1)N(CCc1ccccc1)CC(F)(F)C(=O)N2C [Example I-277, 4-(7,7-difluoro-5-methyl-6-oxo-9-phenethyl-6,7,8,9-tetrahydro-5H-pyrimido[4,5-b][1,4]diazepin-2-ylamino)-3-methoxy-benzamide]"
2,51 to 500 nM,"COc1cc(C(=O)NCCCN(C)C)ccc1Nc1ncc2c(n1)N(CCc1ccccc1)CC(F)(F)C(=O)N2C [Example I-279, 4-(7,7-difluoro-5-methyl-6-oxo-9-phenethyl-6,7,8,9-tetrahydro-5H-pyrimido[4,5-b][1,4]diazepin-2-ylamino)-N-(3-dimethylamino-propyl)-3-methoxy-benzamide]"
3,51 to 500 nM,"COc1cc(C(=O)O)ccc1Nc1ncc2c(n1)N(CCCc1ccccc1)CC(F)(F)C(=O)N2C [Example I-281, 4-[7,7-difluoro-5-methyl-6-oxo-9-(3-phenyl-propyl)-6,7,8,9-tetrahydro-5H-pyrimido[4,5-b][1,4]diazepin-2-ylamino]-3-methoxy-benzoic acid]"
4,1 to 50 nM,"COc1cc(C(=O)NC2CCN(C)CC2)ccc1Nc1ncc2c(n1)N(CCCc1ccccc1)CC(F)(F)C(=O)N2C [Example I-282, 4-[7,7-difluoro-5-methyl-6-oxo-9-(3-phenyl-propyl)-6,7,8,9-tetrahydro-5H-pyrimido[4,5-b][1,4]diazepin-2-ylamino]-3-methoxy-N-(1-methyl-piperidin-4-yl)-benzamide]"
5,51 to 500 nM,"COc1cc(C(=O)NC2CCOCC2)ccc1Nc1ncc2c(n1)N(CCCc1ccccc1)CC(F)(F)C(=O)N2C [Example I-286, 4-[7,7-difluoro-5-methyl-6-oxo-9-(3-phenyl-propyl)-6,7,8,9-tetrahydro-5H-pyrimido[4,5-b][1,4]diazepin-2-ylamino]-3-methoxy-N-(tetrahydro-pyran-4-yl)-benzamide]"
6,51 to 500 nM,"COc1ccc(CN2CC(F)(F)C(=O)N(C)c3cnc(Nc4ccc(C(=O)NC5CCN(C)CC5)cc4OC)nc32)cc1 [Example I-291, 4-[7,7-difluoro-9-(4-methoxy-benzyl)-5-methyl-6-oxo-6,7,8,9-tetrahydro-5H-pyrimido[4,5-b][1,4]diazepin-2-ylamino]-3-methoxy-N-(1-methyl-piperidin-4-yl)-benzamide]"
7,1 to 50 nM,"COc1cc(C(=O)NCCCN(C)C)ccc1Nc1ncc2c(n1)N(C(C)C)CC(F)(F)C(=O)N2C [Example I-296, 4-(7,7-difluoro-9-isopropyl-5-methyl-6-oxo-6,7,8,9-tetrahydro-5H-pyrimido[4,5-b][1,4]diazepin-2-ylamino)-N-(3-dimethylamino-propyl)-3-methoxy-benzamide]"
8,1 to 50 nM,"COc1cc(C(=O)NC2CCN(C)CC2)ccc1Nc1ncc2c(n1)N(C1CCCC1)CC(Cl)(Cl)C(=O)N2C [Example I-298, 4-(7,7-dichloro-9-cyclopentyl-5-methyl-6-oxo-6,7,8,9-tetrahydro-5H-pyrimido[4,5-b][1,4]diazepin-2-ylamino)-3-methoxy-N-(1-methyl-piperidin-4-yl)-benzamide]"
